# Values quoted from earlier work as cited in PubChem BioAssay AID1259409 (Chemical Carcinogenesis Research Information System (CCRIS), 2018).
# Test system: rodent chemically induced tumor inhibition, incidence and multiplicity
# Assay: CCRIS tumor inhibitor studies
# Conditions: Species: MOUSE
# Description: The CCRIS database contains chemical records with carcinogenicity, mutagenicity, tumor promotion, and tumor inhibition test results. It was developed by the National Cancer Institute (NCI). Data are derived from studies cited in primary journals, current awareness tools, NCI reports, and other sources. Test results have been reviewed by experts in carcinogenesis and mutagenesis.
# CCRIS provides historical information from the years 1985 - 2011. It is no longer updated.
# This is an archive assay for CCRIS tumor inhibitor studies.
compound,measurement,setting,value
S=C=NCCCCc1cccnc1,"tumour outcome (control, treated, inhibition, significance)","Carcinogen: 4-(METHYLNITROSAMINO)-1-(3-PYRIDYL)-1-BUTANONE, 64091-91-4, Dose [Inhibitor]: 0, 0.2 UMOL 1/D FOR 4 D ADMINISTERED PRIOR TO CARCINOGEN TREATMENT (STUDY DURATION: 116 D), Route [Inhibitor]: GAVAGE, Strain/Sex: STRAIN A, Target Tissue: Type of Lesion: LUNG: ADENOMA, Dose [Carcinogen]: 10 UMOL ONCE 2 HR AFTER FINAL DOSE OF INHIBITOR, Promoter: NONE USED","100%, 100%, 0%, not significant"
same,"tumour outcome (control, treated, inhibition, significance)","Carcinogen: 4-(METHYLNITROSAMINO)-1-(3-PYRIDYL)-1-BUTANONE, 64091-91-4, Dose [Inhibitor]: 0, 1 UMOL 1/D FOR 4 D ADMINISTERED PRIOR TO CARCINOGEN TREATMENT (STUDY DURATION: 116 D), Route [Inhibitor]: GAVAGE, Strain/Sex: STRAIN A, Target Tissue: Type of Lesion: LUNG: ADENOMA, Dose [Carcinogen]: 10 UMOL ONCE 2 HR AFTER FINAL DOSE OF INHIBITOR, Promoter: NONE USED","100%, 100%, 0%, not significant"
C/C=C/S/C=C/C,"tumour outcome (control, treated, inhibition, significance)","Carcinogen: 7,12-DIMETHYLBENZ[A]ANTHRACENE, 57-97-6, Dose [Inhibitor]: 0, 1 MG IN 0.2 ML ACETONE APPLIED 30 MIN AFTER EACH MEZEREIN DOSE (STUDY DURATION: 20 WK), Route [Inhibitor]: DERMAL, Strain/Sex: SENCAR/FEMALE, Target Tissue: Type of Lesion: SKIN: PAPILLOMA, Dose [Carcinogen]: 0.1 UMOL IN 0.2 ML ACETONE ONCE, Promoter: TPA, 16561-29-8, MEZEREIN, 37807-41-5, Promoter: TPA, 16561-29-8, MEZEREIN, 37807-41-5","100%, 86%, 14%, p<0.005"
same,"tumour outcome (control, treated, inhibition, significance)","Carcinogen: 7,12-DIMETHYLBENZ[A]ANTHRACENE, 57-97-6, Dose [Inhibitor]: 0, 1 MG IN 0.2 ML ACETONE APPLIED 30 MIN AFTER EACH TPA DOSE (STUDY DURATION: 20 WK), Route [Inhibitor]: DERMAL, Strain/Sex: SENCAR/FEMALE, Target Tissue: Type of Lesion: SKIN: PAPILLOMA, Dose [Carcinogen]: 0.1 UMOL IN 0.2 ML ACETONE ONCE, Promoter: TPA, 16561-29-8, MEZEREIN, 37807-41-5, Promoter: TPA, 16561-29-8, MEZEREIN, 37807-41-5","100%, 91%, 9%, p<0.005"
CCNC(=O)\C=C(C)/C=C/C=C(C)/C=C/C1=C(C)CCCC1(C)C,"tumour outcome (control, treated, inhibition, significance)","Carcinogen: N-BUTYL-N-(4-HYDROXYBUTYL)NITROSAMINE, 3817-11-6, Dose [Inhibitor]: 1.5 MMOL/KG DIET DAILY FOR 153 D STARTING ONE WK AFTER THE FINAL CARCINOGEN DOSE (STUDY DURATION: 210 D), Route [Inhibitor]: ORAL, Strain/Sex: BDF/MALE, Target Tissue: Type of Lesion: URINARY BLADDER: TRANSITIONAL CELL CARCINOMA, Dose [Carcinogen]: 7.5 MG 1/WK FOR 8 WK, Promoter: NONE USED","35/99 (35%), 19/96 (20%), 43%, p<0.05"
same,"tumour outcome (control, treated, inhibition, significance)","Carcinogen: N-BUTYL-N-(4-HYDROXYBUTYL)NITROSAMINE, 3817-11-6, Dose [Inhibitor]: 1.5 MMOL/KG IN DIET DAILY FOR 153 D STARTING ONE WK AFTER THE LAST CARCINOGEN DOSE (STUDY DURATION: 210 D), Route [Inhibitor]: ORAL, Strain/Sex: BDF/MALE, Target Tissue: Type of Lesion: URINARY BLADDER: TRANSITIONAL CELL CARCINOMA, Dose [Carcinogen]: 7.5 MG 1/WK FOR 8 WK, Promoter: NONE USED","35/99 (35%), 19/96 (20%), 43%, p<0.05"
CCCCCCCCCCCCCCCCCCOC1=C(O)C([C@@H](O)CO)OC1=O (stereo not given in full),"tumour outcome (control, treated, inhibition, significance)","Carcinogen: NONE USED, Dose [Inhibitor]: 0, 0.1% IN DIET FOR DURATION OF STUDY (STUDY DURATION: 16 MO), Route [Inhibitor]: ORAL, Strain/Sex: C3H/HENCRJ/MALE, Target Tissue: Type of Lesion: LIVER: ADENOMA, Promoter: NONE USED","17/43 (40%), 20/39 (51%), -28%, not calculated"
same,"tumour outcome (control, treated, inhibition, significance)","Carcinogen: NONE USED, Dose [Inhibitor]: 0, 0.1% IN DIET FOR DURATION OF STUDY (STUDY DURATION: 16 MO), Route [Inhibitor]: ORAL, Strain/Sex: C3H/HENCRJ/MALE, Target Tissue: Type of Lesion: LIVER: CARCINOMA, Promoter: NONE USED","11/43 (26%), 2/39 (5%), 81%, p<0.05"
COc1c2ccoc2cc2cc(C)oc(=O)c12,"tumour outcome (control, treated, inhibition, significance)","Carcinogen: 7,12-DIMETHYLBENZ[A]ANTHRACENE, 57-97-6, Dose [Inhibitor]: 0, 400 NMOL ONCE APPLIED 5 MIN PRIOR TO CARCINOGEN DOSE (STUDY DURATION: 25 WK), Route [Inhibitor]: DERMAL, Strain/Sex: SENCAR, Target Tissue: Type of Lesion: SKIN: PAPILLOMA, Dose [Carcinogen]: 10 NMOL ONCE, Promoter: 12-O-TETRADECANOYLPHORBOL-13-ACETATE, 16561-29-8","96%, 96%, 0%, not significant"
same,"tumour outcome (control, treated, inhibition, significance)","Carcinogen: BENZO[A]PYRENE, 50-32-8, Dose [Inhibitor]: 0, 400 NMOL ONCE APPLIED 5 MIN PRIOR TO CARCINOGEN DOSE (STUDY DURATION: 25 WK), Route [Inhibitor]: DERMAL, Strain/Sex: SENCAR, Target Tissue: Type of Lesion: SKIN: PAPILLOMA, Dose [Carcinogen]: 200 NMOL ONCE, Promoter: 12-O-TETRADECANOYLPHORBOL-13-ACETATE, 16561-29-8","91%, 91%, 0%, not significant"
